In brackets after ≈: the same amount, converted by molar mass. Where two headings read alike, the source gives them in different places.

In assay [1] the test system is Staphylococcus aureus. In words: MIC by broth microdilution, antibiotics with and without ALAFAC. The class given is cell-based. To be noted: for MIC: Staphylococcus aureus. The protocol:
(§1) Methodology: Minimal inhibitory concentrations (MICs) were determined in 96-well microtiter plates using the microdilution method according to approved standards of the CLSI except that Todd-Hewitt medium supplemented with 0.5% yeast extract, which yields reproducible MIC results was used as the test medium for S. pneumoniae. For the remaining species Mueller-Hinton medium was used as indicated by the CLSI standard. Each well contained two-fold dilutions of antibiotic, was seeded with a final bacterial concentration of 10^5 CFU/mL, and was incubated for 18 h at 37° C. in a Synergy II microplate reader (Biotek, Winooski, Vt.) where the OD600 was recorded every 5 minutes to monitor bacterial growth. The MIC was defined as the lowest concentration of antimicrobial agent solution at which no increase in OD600 was detected.
In vitro susceptibility tests. Minimal inhibitory concentrations (MICs) were determined in 96-well microtiter plates using the microdilution method according to approved standards of the CLSI as described previously. However, rather than Mueller-Hinton broth, Tryptic soy broth (TSB) was used for susceptibility testing as it is the common media used for Staphylococcal growth, and as it has shown more consistent results for a variety of antimicrobials when tested against Staphylococci. […] A two-fold dilution series of antibiotics in triplicate and in the presence or absence of ALAFAC was prepared in 96 well microtiter plates, and each well was seeded with a final bacterial concentration of 10^5 CFU/mL, and was incubated for 24 h at 37° C. in a Synergy 2 microplate reader (Biotek, Winooski, Vt.) where the Optical Density at 600 nm (OD600) was recorded every 5 minutes to monitor bacterial growth. The MIC was defined as the lowest concentration of antimicrobial agent solution where no increase in OD600 was detected.
For orientation: In broth dilution the organism is exposed to a series of concentrations in liquid medium.

The test system of another assay is NRS 123 Staphylococci. As to the kind of experiment: Membrane potential, DiBAC4(3) fluorescence. The class given is cell-based, Staphylococcus aureus. To be noted: Ruthenium Red, Amiloride. The protocol: Assessing membrane potential. Staphylococci grown to late log phase in TSB were pelleted by centrifugation at 2,400×g for 10 minutes and washed twice by resuspension in PBS. The bacterial pellet was resuspended in PBS to half of the original volume and energized with 50 mM glucose for 15 minutes at 37° C. To measure membrane potential of the staphylococcal membrane, 500 nM DiBAC4(3) (bis-(1,3-dibutylbarbituric acid) trimethine oxonol; Molecular Probes, Eugene, Oreg., USA) were added. […] The plate was then placed immediately into a pre-warmed (37° C.) Synergy 2 Multi-Mode Microplate Reader (BioTek) where fluorescence readings from DiBAC4(3) (485/20 nm excitation, 528/20 nm emission) were taken every minute for one hour. The difference in fluorescence intensity between the untreated control and the ALAFAC-treated sample was calculated for the “no inhibitor” samples and for the “inhibitor” samples using the values after 60 minutes. The fluorescence intensity difference for the “inhibitor” samples was then expressed as fold change of the intensity compared with the ALAFAC alone (“no inhibitor”) sample, providing the degree of depolarization compared to the “ALAFAC alone” sample.

A further assay has as its system NRS 384 Staphylococci. In words: Intracellular pH measurement (BCECF-AM). The class given is cell-based, Staphylococcus aureus. The conditions noted are these: ALAFAC 100 μg/mL (6 μM), RuR 30 μM, Amiloride 1 mM. The text has this:
Intracellular pH measurement. A reported protocol for intracellular pH (pHi) measurement was modified and optimized for S. aureus by testing the effect of various dye concentrations and staining times on the measured fluorescence of S. aureus isolate NRS 384 grown to mid-log phase. Cell samples were subjected to increasing concentrations of the membrane-permeant acetoxymehtyl (AM) ester derivative of the dual-excitation ratiometric pH indicator dye BCECF (2′,7′-bis-(2-carboxyethyl)-5-(and-6)-carboxyfluorescein), for 30 minutes at 30° C. Fluorescence was measured as a ratio of fluorescence at 530 nm with dual wavelength excitation at 490 and 440 nm and calibration curves were established for each independent experiment. After testing a number of loading concentrations we observed that the fluorescence ratios remains generally constant when concentrations above 20 μM was used. Therefore 25 μM BCECF-AM was used for all experiments. The optimized staining time, 30 minutes, was determined using the same criteria and was used for all experiments. After loading, the cells were washed twice in PBS by centrifugation and the resulting pellet was resuspended in PBS to the original volume and ALAFAC and ALAFAC/antibiotic combinations were added. CCCP was added as a positive control. CCCP is a lipophilic weak acid that is soluble in the lipid domain of the membrane in both the protonated and deprotonated form. This allows it to act as a protonophore causing an influx of H^+ into the cytoplasm, dissipating both the electrical potential and the H^+ gradient across the inner membrane. For each experiment calibration was performed where cells were resuspended in high [K^+] buffers at different pH values ranging from 6.5 to 8.0.

Assay [2] concerns Streptococcus pneumoniae. As to the kind of experiment: MIC by broth microdilution, antibiotics with and without ALAFAC. The class given is cell-based. To be noted: Streptococcus pneumoniae, agent alone, read-out: MIC. The protocol: as §1
In vitro susceptibility tests. Minimal inhibitory concentrations (MICs) were determined in 96-well microtiter plates using the microdilution method according to approved standards of the CLSI except that Todd-Hewitt medium supplemented with 0.5% yeast extract, which yields reproducible MIC results was used as the test medium for S. pneumoniae. MICs for A. baumanni, and M. catarrhalis were determined in MH media. Two-fold dilutions of a starting antibiotic concentration was added in triplicate into microtiter plate wells (in 96-well plates), were seeded with a final bacterial concentration of ˜10^5 colony forming units (CFU)/mL, and was incubated for 18 h in ambient air at 37° C. in a Synergy II microplate reader (Biotek, Winooski, Vt.) where the OD600 was recorded every 5 minutes to monitor bacterial growth. The MIC was defined as the lowest concentration of antimicrobial agent solution at which no increase in OD600 was detected.

In assay [3] the test system is Streptococcus pneumoniae biofilms. As to the kind of experiment: Static biofilm model, viable counts. The conditions noted are these: for Minimum antibiotic concentration for bactericidal (>3 log10) activity on biofilms: within 4-6 hours, antibiotic alone. The format is cell-based. On the procedure: Methodology: Pneumococci were grown statically in CDM and S. aureus were grown in trypic soy medium to mid-logarithmic phase (OD600=0.5), washed, and resuspended in fresh pre-warmed medium to a density of 2×10^4 CFU in 500 μl volume, and suspensions were used to seed sterile round glass coverslips in the bottom of polystyrene 24-well plates with or without a substratum of confluent H292 epithelial cells. Biofilms were cultured at 34° C. in 5% CO2 for indicated times with change of culture media every 12 hours and to assess biomass and antibiotic resistance by viable counts (as described).
Biofilms were then washed in PBS and detached by scraping the surface in the presence of 100 μL PBS followed by a rinse with 100 μL PBS. Collected cells were sonicated in a sonication water bath for 2 s followed by vortexing twice for 20 seconds at high speed and the dispersed biofilm cells were used to determine viable CFUs per ml from diluted samples plated and grown on blood agar.
Static Biofilm Model. Pneumococci were grown in CDM to mid-logarithmic phase (OD600=0.5), washed, and resuspended in fresh pre-warmed medium to a density of 2×10^4 CFUs in 500 μl volume, and suspensions were used to seed sterile round glass coverslips in the bottom of polystyrene 24-well plates with a substratum of confluent H292 epithelial cells as described. Biofilms were cultured at 34° C. in 5% CO2 for indicated times with change of culture media every 12 hours and used for SEM studies or to assess biomass and antibiotic resistance by viable plate counts.
Biofilms were then washed in PBS, dispersed by sonication, and collected by pipetting in 100 μL PBS followed by a rinse with 100 μL PBS. Collected cells were then vortexed twice for 20 seconds at high speed and the dispersed biofilm cells were used to determine viable CFUs per ml from diluted samples plated and grown on blood agar. Results are reported as the total number of CFUs per biofilm.

Assay [4] relates to Staphylococcus aureus. In words: Minimal bactericidal concentration (MBC) from MIC plates. The class given is cell-based. The conditions noted are these: Staphylococcus aureus. The text has this:
The MBC was defined as the lowest concentration of antimicrobials yielding colony counts <0.1% (3 log10 reduction) of the initial inoculum (as determined by colony counts from the growth control well immediately after inoculation) as described.

The test system of assay [5] is Streptococcus pneumoniae. As to the kind of experiment: Short-time kill assay on planktonic cultures. The class given is cell-based. To be noted: for Minimum antibiotic concentration for bactericidal (>3 log10) activity, planktonic: within 4-6 hours, antibiotic alone. On the procedure:
Methodology: In late logarithmic growth phase, the bacteria were harvested by centrifugation at 12,000×g for 10 minutes and resuspended in phosphate-buffered saline (PBS; […], […], […], pH 7.4). Appropriate dilutions of the bacteria were suspended in PBS and treated with indicated concentrations of ALAFAC and/or antibiotics for various times. The effect on bacterial viability was assessed by plating serial dilutions of bacterial sample on tryptic soy agar plates containing 5% sheep blood (viable counts) and determining viable colony forming units after overnight growth at 37° C.
Short-time kill assays. In late logarithmic growth phase, the bacteria were harvested by centrifugation at 12,000×g for 10 minutes and resuspended in phosphate-buffered saline (PBS; 30 mM Na2HPO4, 10 mM KH2PO4, […], pH 7.4). Appropriate concentrations of the bacteria (around 10^8 colony forming units per ml) were suspended in PBS and treated with indicated concentrations of ALAFAC and/or antibiotics for various times. The effect on bacterial viability was assessed by plating serial dilutions of bacterial sample on tryptic soy agar plates containing 5% sheep blood (viable counts) and determining viable CFUs after overnight growth at 37° C.

Assay [6] concerns Staphylococcus aureus biofilms. As to the kind of experiment: Static biofilm model, viable counts. The format is cell-based. The conditions noted are these: NRS 1 (VISA) and NRS 384 (VSSA) biofilms; 24 hours; vancomycin 32 μg/mL (21 μM) alone or with ALAFAC. On the procedure:
Static Biofilm Model. Staphylococci were grown in TSB to mid-logarithmic phase (OD600=0.5), washed, and resuspended in fresh pre-warmed medium to a density of 2×10^4 CFU in 500 μl volume, and suspensions were used to seed polystyrene 24-well plates. Bacteria were cultured at 37° C. for 12 hours, after which biofilms were washed with PBS to eliminate planktonic bacteria and were exposed to TSB with indicated concentrations of ALAFAC and/or antibiotics for 24 hours at 37° C. Biofilms were then washed in PBS, sonicated and detached by scraping the surface in the presence of 100 μL PBS followed by a rinse with 100 μL PBS. Collected cells were vortexed twice for 20 seconds at high speed and the dispersed biofilm cells were first observed by microscopy to ensure proper dispersion and then diluted in a 10-fold dilution series where 100 μl of each dilution was plated on blood agar plates to determine viable CFUs per ml after overnight growth at 37° C. Colony counts from plates carrying 20-200 colonies were used to determine the viable counts and are reported as the total number of colony-forming units per biofilm.

`N=C(N)NC(=O)c1nc(Cl)c(N)nc1N` [Amiloride]: the “Effect of inhibitor on ALAFAC antibiotic potentiation in MIC assay” value in the assay on Staphylococcus aureus [1] (NRS 123, methicillin + ALAFAC, Ruthenium Red 30 μM, Amiloride 1 mM) is recorded as “completely abolished”. In addition, the “Effect of inhibitor on ALAFAC-associated membrane depolarization” value in the assay with NRS 123 Staphylococci is listed as “completely abolished”. Also, in the assay on NRS 384 Staphylococci, the “Transmembrane proton gradient (intracellular pH)” value is “did not fully inhibit”.

Broadly, the MIC is the lowest concentration found to suppress growth. The term MBC denotes the lowest tested concentration that kills the bacteria rather than only halting them. Take `CC[C@H]1OC(=O)[C@H](C)[C@@H](O[C@H]2C[C@@](C)(OC)[C@@H](O)[C@H](C)O2)[C@H](C)[C@@H](O[C@@H]2O[C@H](C)C[C@H](N(C)C)[C@H]2O)[C@](C)(O)C[C@@H](C)C(=O)[C@H](C)[C@@H](O)[C@]1(C)O` [Erythromycin, erythromycin]: the MIC with Streptococcus pneumoniae [2] (S. pneumoniae D39) worked out at 0.03 µg/mL; with Streptococcus pneumoniae [2] (S. pneumoniae JY53 (erythromycin-resistant)) it was 3 µg/mL; with Staphylococcus aureus [1] (S. aureus NRS123, antibiotic alone, read-out: MIC) it was 0.5 µg/mL; in the assay on Staphylococcus aureus [1] (S. aureus NRS384, antibiotic alone, read-out: MIC), 16 µg/mL. The Biofilm killing entry in assay [3] (D39 48 h biofilm (8.7 log10), erythromycin 500 μg/ml alone or with 250 μg/ml ALAFAC) is reported as “no bactericidal effects”. Also, the “Minimum antibiotic concentration for bactericidal (>3 log10) activity on biofilms” value in assay [3] (S. pneumoniae D39 biofilm) and in assay [3] (S. pneumoniae JY53 biofilm) was more than 1000 μg/ml in each case. Moreover, the MBC is 16 µg/mL (≈ 21.8 µM) in the assay with Staphylococcus aureus [4] (NRS123, S. aureus NRS123, antibiotic alone, read-out: MBC) and more than 256 µg/mL in the assay with Staphylococcus aureus [4] (NRS384, S. aureus NRS384, antibiotic alone, read-out: MBC). Also, the Short-time killing result with Streptococcus pneumoniae [5] (D39, 4 hours, ALAFAC 50 μg/ml, erythromycin 200 μg/ml, alone or combined, 7.2 log10 inoculum) was “insignificant bactericidal activity”. In addition, the Bactericidal activity alone result in the assay with Streptococcus pneumoniae [5] (D39 and EF3030, 1 hour, penicillin G up to 5,000 μg/ml, erythromycin up to 1,000 μg/ml) is on record as “lacked any bactericidal activity”. For the same compound, the “Minimum antibiotic concentration for bactericidal (>3 log10) activity, planktonic” value in the assay on Streptococcus pneumoniae [5] (S. pneumoniae D39) is reported as >1,000 μg/ml; in the assay with Streptococcus pneumoniae [5] (S. pneumoniae JY53), more than 1000 μg/ml.

Regarding `CN[C@H](CC(C)C)C(=O)N[C@H]1C(=O)N[C@@H](CC(N)=O)C(=O)N[C@H]2C(=O)N[C@H]3C(=O)N[C@H](C(=O)N[C@H](C(=O)O)c4cc(O)cc(O)c4-c4cc3ccc4O)[C@H](O)c3ccc(c(Cl)c3)Oc3cc2cc(c3O[C@@H]2O[C@H](CO)[C@@H](O)[C@H](O)[C@H]2O[C@H]2C[C@](C)(N)[C@H](O)[C@H](C)O2)Oc2ccc(cc2Cl)[C@H]1O` [Vancomycin, vancomycin], the figures for the MIC in the assay on Staphylococcus aureus [1] (NRS1) and with Staphylococcus aureus [1] (NRS384) were 8 µg/mL and 1 µg/mL, respectively. For the same compound, the MBC was determined as 32 µg/mL (≈ 22.1 µM) against Staphylococcus aureus [4] (NRS1) and 16 µg/mL (≈ 11 µM) in the assay with Staphylococcus aureus [4] (NRS384). For the same compound, the Biofilm killing entry in assay [6] was “almost complete insensitivity”.
